Assay results taken from the supplement of paper PMC10307832.

Tests used:
Test in all cases: relative viability (nuclei count vs DMSO), 5 days (fraction); higher = more cells survive
[1] = compound: O=S(=O)(c1ccccc1)N(CC(F)(F)F)c1ccc(C(O)(C(F)(F)F)C(F)(F)F)cc1 + Cc1cc(Nc2cc(N3CCN(C)CC3)nc(Sc3ccc(NC(=O)C4CC4)cc3)n2)n[nH]1 [Tozasertib] (partner 0.1 µM)
Method in brief: (§1)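 Relative viability was taken as the ratio of nuclei in treated wells to nuclei in vehicle wells. Lung cancer cell lines in 1536-well plates received compounds by pin tool one day after seeding, either one drug alone or a fixed anchor-drug dose plus five library-drug doses (not always all listed) in √10 steps. Nuclei were counted on 4× images after 5 days of treatment, and values are medians of duplicate plates.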

[2] = compound: C1=CC2=C(C=CC(=C2)C=C3C(=O)NC(=NCC4=CC=CS4)S3)N=C1 [RO-3306] + N=C(N)NC(=N)NCCc1ccccc1 [Phenformin] (partner 250 µM)
Method in brief: as §1

[3] = compound: O=S(=O)(c1ccccc1)N(CC(F)(F)F)c1ccc(C(O)(C(F)(F)F)C(F)(F)F)cc1 + Nc1nc2[nH]cc(CCc3ccc(C(=O)N[C@@H](CCC(=O)O)C(=O)O)cc3)c2c(=O)[nH]1 [Pemetrexed] (partner 0.2 µM)
Method in brief: as §1

[4] = compound: C1=CC2=C(C=CC(=C2)C=C3C(=O)NC(=NCC4=CC=CS4)S3)N=C1 [RO-3306] + Cc1nc(NC(=O)N2CCC[C@H]2C(N)=O)sc1-c1ccnc(C(C)(C)C(F)(F)F)c1 [Alpelisib] (partner 2 µM)
Method in brief: as §1

[5] = compound: O=S(=O)(c1ccccc1)N(CC(F)(F)F)c1ccc(C(O)(C(F)(F)F)C(F)(F)F)cc1 + CC(=O)Nc1cccc(-n2c(=O)n(C3CC3)c(=O)c3c(Nc4ccc(I)cc4F)n(C)c(=O)c(C)c32)c1 [Trametinib] (partner 0.02 µM)
Method in brief: as §1

Row | Cell Line | relative viability ([1]; first compound 0.8 µM) | relative viability ([1]; first compound 2.53 µM) | relative viability ([1]; first compound 8 µM) | relative viability ([2]; first compound 0.01 µM) | relative viability ([2]; first compound 0.03162 µM) | relative viability ([2]; first compound 0.1 µM) | relative viability ([2]; first compound 0.3162 µM) | relative viability ([2]; first compound 1 µM) | relative viability ([3]; first compound 0.8 µM) | relative viability ([3]; first compound 2.53 µM) | relative viability ([3]; first compound 8 µM) | relative viability ([4]; first compound 0.01 µM) | relative viability ([4]; first compound 0.03162 µM) | relative viability ([4]; first compound 0.1 µM) | relative viability ([4]; first compound 0.3162 µM) | relative viability ([4]; first compound 1 µM) | relative viability ([5]; first compound 0.8 µM) | relative viability ([5]; first compound 2.53 µM) | relative viability ([5]; first compound 8 µM)
1 | NCI-H1734 | 0.294 | 0.29 | 0.244 | 0.355 | 0.276 | 0.344 | 0.409 | 0.368 | 0.438 | 0.431 | 0.422 | 0.687 | 0.595 | 0.697 | 0.726 | 0.719 | 0.711 | 0.65 | 0.664
2 | NCI-H1755 | 0.501 | 0.553 | 0.426 | 0.65 | 0.62 | 0.63 | 0.622 | 0.544 | 0.417 | 0.422 | 0.436 | 1.02 | 0.772 | 0.958 | 0.904 | 0.859 | 0.769 | 0.661 | 0.815
3 | NCI-H1793 | 0.31 | 0.249 | 0.269 | 0.346 | 0.347 | 0.397 | 0.366 | 0.315 | 0.792 | 0.587 | 0.806 | 0.686 | 0.577 | 0.739 | 0.59 | 0.565 | 0.33 | 0.295 | 0.29
4 | NCI-H1915 | 0.458 | 0.454 | 0.468 | 0.405 | 0.31 | 0.358 | 0.348 | 0.377 | 0.518 | 0.464 | 0.51 | 1.11 | 0.988 | 1.08 | 1.11 | 1.05 | 0.303 | 0.261 | 0.255
5 | NCI-H1944 | 0.263 | 0.263 | 0.234 | 0.206 | 0.182 | 0.2 | 0.168 | 0.194 | 0.634 | 0.589 | 0.576 | 0.789 | 0.739 | 0.816 | 0.934 | 0.829 | 0.448 | 0.389 | 0.432
6 | NCI-H1975 | 0.781 | 0.622 | 0.659 | 0.412 | 0.392 | 0.378 | 0.405 | 0.384 | 0.358 | 0.293 | 0.3 | 0.882 | 0.507 | 0.615 | 0.675 | 0.67 | 0.341 | 0.338 | 0.316
7 | NCI-H1993 | 0.596 | 0.535 | 0.528 | 0.483 | 0.552 | 0.503 | 0.517 | 0.499 | 0.616 | 0.533 | 0.614 |  | 0.657 | 0.712 | 0.589 | 0.666 | 0.554 | 0.457 | 0.478
8 | NCI-H2009 | 0.749 | 0.57 | 0.679 | 0.52 | 0.455 | 0.49 | 0.483 | 0.494 | 1.01 | 0.941 | 0.824 | 1.18 | 1.18 | 1.21 | 1.12 | 1.27 | 0.259 | 0.246 | 0.289
9 | NCI-H2023 | 0.335 | 0.289 | 0.249 | 0.459 | 0.38 | 0.398 | 0.403 | 0.356 | 0.274 | 0.268 | 0.231 | 0.758 | 0.448 | 0.558 | 0.661 | 0.564 | 0.593 | 0.428 | 0.358
10 | NCI-H2085 | 0.809 | 0.727 | 0.688 | 0.688 | 0.604 | 0.655 | 0.683 | 0.654 | 0.751 | 0.8 | 0.869 | 1.07 | 0.926 | 0.922 | 0.968 | 0.952 | 0.471 | 0.496 | 0.472
11 | NCI-H2087 | 0.255 | 0.258 | 0.188 | 0.526 | 0.332 | 0.423 | 0.489 | 0.372 | 0.459 | 0.593 | 0.633 | 1.12 | 1.2 | 1.08 | 0.91 | 1.08 | 0.26 | 0.173 | 0.2
12 | NCI-H2126 | 0.934 | 0.887 | 0.769 | 0.504 | 0.544 | 0.513 | 0.508 | 0.513 | 0.82 | 0.743 | 0.672 | 0.717 | 0.698 | 0.752 | 0.786 | 0.8 | 0.645 | 0.593 | 0.628
13 | NCI-H2170 | 0.784 | 0.616 | 0.629 | 0.425 | 0.422 | 0.396 | 0.383 | 0.435 | 0.256 | 0.274 | 0.28 | 0.772 | 0.687 | 0.765 | 0.825 | 0.77 | 0.973 | 0.779 | 0.814
14 | NCI-H2228 | 0.265 | 0.176 | 0.183 | 0.286 | 0.211 | 0.276 | 0.32 | 0.241 | 0.373 | 0.309 | 0.333 | 0.623 | 0.777 | 0.865 | 0.673 | 0.609 | 0.693 | 0.371 | 0.429
15 | NCI-H2347 | 0.628 | 0.523 | 0.646 | 0.347 | 0.374 | 0.384 | 0.485 | 0.384 | 0.47 | 0.445 | 0.395 | 1.13 | 0.759 | 1.01 | 1.05 | 0.951 | 0.304 | 0.277 | 0.292
16 | NCI-H2405 | 0.889 | 0.749 | 0.711 | 0.403 | 0.539 | 0.356 | 0.368 | 0.554 | 1.17 | 1.05 | 1.01 | 0.801 | 0.707 | 0.784 | 0.874 | 0.695 | 0.673 | 0.615 | 0.707
